“And” between values parts separate entries of the source, which are not always exact repeats. Equal values may be shown once.
Legend:
[1] = Hygroscopicity test of crystalline compound 8 powder in desiccators over saturated salt solutions (weight increase, appearance); type: physicochemical; conditions: for Weight Increase: individual samples 1-3, listed as crystal compound 8
Method: The tendency toward hygroscopicity of crystalline compound 8 in powder form was tested at 75% and 92.5% relative humidity at 25° C. for up to 10 days. Reagents included: (1) water: in house, MilliQ, 18.2MΩ; (2) NaCl: AR grade; (3) KNO3: AR grade; (4) saturated NaC solution with extra NaCl solid for 25 OC/75% RH control; and (5) saturated KNO3 solution with extra KNO3 solid for 25 OC/92.5% RH control. Equipment used included (1) desiccators, 240 mm ID; and (2) weighing bottles with lids: 50 mm ID×30 mm height. The saturated salt solutions and solids were transferred into individual desiccators, and equilibrated at 25° C. at least overnight to reach the desired relative humidity readings. Four weighing bottles were placed into each desiccator, and equilibrated overnight. The empty weighing bottles were weighed and the tare weights recorded (W1). 0.5 g of crystalline compound 8 was added into three weighing bottles in each desiccator to form a thin layer with thickness of 1-2 mm. The sample weight in each bottle (W2) was recorded. One empty weighing bottle was used for blank calibration. The bottles were left in each desiccator with lids open. The lids were closed and each bottle accurately weighed on days 1, 5 and 10 (W3). The bottles were returned to each desiccator with lids open immediately after weighing. The following formula was used to calculate the weight increase: [formula] WB=the weight increase of empty weighing bottle.

[2] = type: physicochemical
Excerpt: The crystalline compound of the present invention is also characterized by the unit cell data substantially in accordance with FIG. 7. Thermal gravimetric analysis (TGA) can also be used to characterize the crystalline compound of the present invention.

[3] = Hygroscopicity test of crystalline compound 8 powder in desiccators over saturated salt solutions (weight increase, appearance); type: physicochemical; conditions: for Weight Increase, Average: average of 3 samples; for Weight Increase: individual samples 1-3, listed as crystal compound 8

- Weight Increase, Average ([1]; 25° C./75% RH, 1 day, average of 3 samples): 0.2447%
- Weight Increase ([1]; 25° C./75% RH, 1 day): 0.3291% and 0.235% and 0.1698%
- Weight Increase ([1]; 25° C./75% RH, 5 days): 0.1051% and 0.1995% and 0.1578%
- Weight Increase ([1]; 25° C./75% RH, 10 days): 0.3509% and 0.2311% and 0.1957%
- Appearance ([1]; 25° C./75% RH, after 5 days): White powder
- Appearance ([1]; 25° C./75% RH, after 10 days): White powder
- hygroscopicity ([1]; powder form, at the study conditions (75% and 92.5% RH, 25° C., up to 10 days)): low hygroscopicity
- weight increases ([1]; powder samples at 75% and 92.5% relative humidity at 25° C. for 10 days): below 0.26%
- thermal stability (TGA) [2]: above 200 °C
- Weight Increase, Average ([3]; 25° C./75% RH, 5 days): 0.1541%
- Weight Increase, Average ([3]; 25° C./75% RH, 10 days): 0.2593%
- Appearance ([3]; 25° C./75% RH, after 1 day): White powder
- Weight Increase, Average ([3]; 25° C./92.5% RH, 1 day): 0.119%
- Weight Increase ([3]; 25° C./92.5% RH, 1 day): 0.05362% and 0.1036% and 0.1998%
- Weight Increase, Average ([3]; 25° C./92.5% RH, 5 days): 0.1627%
- Weight Increase ([3]; 25° C./92.5% RH, 5 days): 0.0417% and 0.2071% and 0.2394%
- Weight Increase, Average ([3]; 25° C./92.5% RH, 10 days): 0.2295%
- Weight Increase ([3]; 25° C./92.5% RH, 10 days): 0.2601% and 0.1633% and 0.2651%
- Appearance ([3]; 25° C./92.5% RH, after 1 day): White powder
- Appearance ([3]; 25° C./92.5% RH, after 5 days): White powder
- Appearance ([3]; 25° C./92.5% RH, after 10 days): White powder
Structure (SMILES): OC[C@H]1O[C@@H](c2ccc(Cl)c(Cc3ccc(OCCOC4CC4)cc3)c2)[C@H](O)[C@@H](O)[C@@H]1O [crystalline compound 8, (2S,3R,4R,5S,6R)-2-(4-chloro-3-(4-(2-cyclopropoxyethoxy)benzyl)phenyl)-6-(hydroxymethyl)tetrahydro-2H-pyran-3,4,5-triol]

— patent US10533032B2, “Crystalline form of benzylbenzene SGLT2 inhibitor” (THERACOS SUB, LLC, priority 2010, dated 2020)
